In ChEMBL document CHEMBL1143531, “Synthesis, in vitro, and in vivo antibacterial activity of nocathiacin I thiol-Michael adducts” (2005):
Values after ≈ are worked out from the molar mass of the structure shown.

Legend:
Format in all cases: functional
Mus musculus = test: In vivo protective dose required for mouse against systemic lethal […] infection; settings: read-out: PD50
Staphylococcus aureus = test: In vitro minimum inhibitory concentration against methicillin sensitive […] A15090
Enterococcus faecalis = test: In vitro minimum inhibitory concentration against methicillin sensitive Enterococcus faecalis A20688
Streptococcus pneumoniae = test: In vitro minimum inhibitory concentration against penicillin resistant Streptococcus pneumoniae A28272

Structure (SMILES) | ED50 (Mus musculus) [mg/kg] | MIC (Staphylococcus aureus) [µg/mL] | MIC (Enterococcus faecalis) [µg/mL] | MIC (Streptococcus pneumoniae) [µg/mL]
CO/C(C)=C1/NC(=O)C([C@@H](C)O)NC(=O)c2csc(n2)-c2cc(O)c(-c3nc(C(=O)NC(SC4CN5CCC4C5)C(N)=O)cs3)nc2-c2csc(n2)[C@@H]2COC(=O)c3c4c5c(cccc5n3O)COC(=O)[C@@H](O[C@H]3C[C@](C)(O)[C@H](N(C)C)[C@H](C)O3)[C@@H](OC4)[C@H](NC(=O)c3csc1n3)c1nc(cs1)C(=O)N2 (some centres not stated) | 2.5 | 2 (≈ 1.29 µM) | 2 (≈ 1.29 µM) | 0.25 (≈ 0.161 µM)
CO/C(C)=C1/NC(=O)C([C@@H](C)O)NC(=O)c2csc(n2)-c2cc(O)c(-c3nc(C(=O)NC(SC(CC(=O)O)C(=O)O)C(N)=O)cs3)nc2-c2csc(n2)[C@@H]2COC(=O)c3c4c5c(cccc5n3O)COC(=O)[C@@H](O[C@H]3C[C@](C)(O)[C@H](N(C)C)[C@H](C)O3)[C@@H](OC4)[C@H](NC(=O)c3csc1n3)c1nc(cs1)C(=O)N2 (some centres not stated) | > 10 | 4 (≈ 2.54 µM) | 4 (≈ 2.54 µM) | 0.25 (≈ 0.159 µM)
CO/C(C)=C1/NC(=O)C([C@@H](C)O)NC(=O)c2csc(n2)-c2cc(O)c(-c3nc(C(=O)NC(SCC(N)C(=O)O)C(N)=O)cs3)nc2-c2csc(n2)[C@@H]2COC(=O)c3c4c5c(cccc5n3O)COC(=O)[C@@H](O[C@H]3C[C@](C)(O)[C@H](N(C)C)[C@H](C)O3)[C@@H](OC4)[C@H](NC(=O)c3csc1n3)c1nc(cs1)C(=O)N2 (some centres not stated) |  | 1 (≈ 0.647 µM) | 4 (≈ 2.59 µM) | 2 (≈ 1.29 µM)
CO/C(C)=C1/NC(=O)C([C@@H](C)O)NC(=O)c2csc(n2)-c2cc(O)c(-c3nc(C(=O)NC(SCCN(C)C)C(N)=O)cs3)nc2-c2csc(n2)[C@@H]2COC(=O)c3c4c5c(cccc5n3O)COC(=O)[C@@H](O[C@H]3C[C@](C)(O)[C@H](N(C)C)[C@H](C)O3)[C@@H](OC4)[C@H](NC(=O)c3csc1n3)c1nc(cs1)C(=O)N2 (some centres not stated) | 1 | 0.125 (≈ 0.0818 µM) | 0.25 (≈ 0.164 µM) | 0.015 (≈ 0.00981 µM)
CO/C(C)=C1/NC(=O)C([C@@H](C)O)NC(=O)c2csc(n2)-c2cc(O)c(-c3nc(C(=O)NC(SCCc4nnn[nH]4)C(N)=O)cs3)nc2-c2csc(n2)[C@@H]2COC(=O)c3c4c5c(cccc5n3O)COC(=O)[C@@H](O[C@H]3C[C@](C)(O)[C@H](N(C)C)[C@H](C)O3)[C@@H](OC4)[C@H](NC(=O)c3csc1n3)c1nc(cs1)C(=O)N2 (some centres not stated) | > 10 | 2 (≈ 1.29 µM) | 32 (≈ 20.6 µM) | 0.25 (≈ 0.161 µM)
CO/C(C)=C1/NC(=O)C([C@@H](C)O)NC(=O)c2csc(n2)-c2cc(O)c(-c3nc(C(=O)NC(SC[C@@H]4NC(=O)NC4=O)C(N)=O)cs3)nc2-c2csc(n2)[C@@H]2COC(=O)c3c4c5c(cccc5n3O)COC(=O)[C@@H](O[C@H]3C[C@](C)(O)[C@H](N(C)C)[C@H](C)O3)[C@@H](OC4)[C@H](NC(=O)c3csc1n3)c1nc(cs1)C(=O)N2 (some centres not stated) | > 10 | 4 (≈ 2.55 µM) | 128 (≈ 81.5 µM) | 0.03 (≈ 0.0191 µM)
CCN(CC)CCSC(NC(=O)c1csc(-c2nc3c(cc2O)-c2nc(cs2)C(=O)NC([C@@H](C)O)C(=O)N/C(=C(\C)OC)c2nc(cs2)C(=O)N[C@@H]2c4nc(cs4)C(=O)N[C@@H](COC(=O)c4c5c6c(cccc6n4O)COC(=O)[C@@H](O[C@H]4C[C@](C)(O)[C@H](N(C)C)[C@H](C)O4)[C@H]2OC5)c2nc-3cs2)n1)C(N)=O (some centres not stated) | 1.1 | 0.125 (≈ 0.0803 µM) | 0.25 (≈ 0.161 µM) | 0.015 (≈ 0.00964 µM)
CO/C(C)=C1/NC(=O)C([C@@H](C)O)NC(=O)c2csc(n2)-c2cc(O)c(-c3nc(C(=O)NC(SCCS(=O)(=O)[O-])C(N)=O)cs3)nc2-c2csc(n2)[C@@H]2COC(=O)c3c4c5c(cccc5n3O)COC(=O)[C@@H](O[C@H]3C[C@](C)(O)[C@H](N(C)C)[C@H](C)O3)[C@@H](OC4)[C@H](NC(=O)c3csc1n3)c1nc(cs1)C(=O)N2.[Na+] (some centres not stated) | > 10 | 4 | 128 | 0.06
CCN(CC)CCS(=O)(=O)C(NC(=O)c1csc(-c2nc3c(cc2O)-c2nc(cs2)C(=O)NC([C@@H](C)O)C(=O)N/C(=C(\C)OC)c2nc(cs2)C(=O)N[C@@H]2c4nc(cs4)C(=O)N[C@@H](COC(=O)c4c5c6c(cccc6n4O)COC(=O)[C@@H](O[C@H]4C[C@](C)(O)[C@H](N(C)C)[C@H](C)O4)[C@H]2OC5)c2nc-3cs2)n1)C(N)=O (some centres not stated) | 1.4 | 0.06 (≈ 0.0378 µM) | 0.03 (≈ 0.0189 µM) | 0.007 (≈ 0.00441 µM)
COCC(Cn1ccnc1)SC(NC(=O)c1csc(-c2nc3c(cc2O)-c2nc(cs2)C(=O)NC([C@@H](C)O)C(=O)N/C(=C(\C)OC)c2nc(cs2)C(=O)N[C@@H]2c4nc(cs4)C(=O)N[C@@H](COC(=O)c4c5c6c(cccc6n4O)COC(=O)[C@@H](O[C@H]4C[C@](C)(O)[C@H](N(C)C)[C@H](C)O4)[C@H]2OC5)c2nc-3cs2)n1)C(N)=O (some centres not stated) | 1.4 | 0.25 (≈ 0.157 µM) | 0.125 (≈ 0.0783 µM) | 0.03 (≈ 0.0188 µM)
CO/C(C)=C1/NC(=O)C([C@@H](C)O)NC(=O)c2csc(n2)-c2cc(O)c(-c3nc(C(=O)NC(SCC(NC(C)=O)C(=O)O)C(N)=O)cs3)nc2-c2csc(n2)[C@@H]2COC(=O)c3c4c5c(cccc5n3O)COC(=O)[C@@H](O[C@H]3C[C@](C)(O)[C@H](N(C)C)[C@H](C)O3)[C@@H](OC4)[C@H](NC(=O)c3csc1n3)c1nc(cs1)C(=O)N2 (some centres not stated) | > 10 | 2 (≈ 1.26 µM) | 8 (≈ 5.04 µM) | 0.125 (≈ 0.0788 µM)
CO/C(C)=C1/NC(=O)C([C@@H](C)O)NC(=O)c2csc(n2)-c2cc(O)c(-c3nc(C(=O)NC(SCCC(=O)O)C(N)=O)cs3)nc2-c2csc(n2)[C@@H]2COC(=O)c3c4c5c(cccc5n3O)COC(=O)[C@@H](O[C@H]3C[C@](C)(O)[C@H](N(C)C)[C@H](C)O3)[C@@H](OC4)[C@H](NC(=O)c3csc1n3)c1nc(cs1)C(=O)N2 (some centres not stated) | > 10 | 1 (≈ 0.654 µM) |  | 0.01 (≈ 0.00654 µM)
CO/C(C)=C1/NC(=O)C([C@@H](C)O)NC(=O)c2csc(n2)-c2cc(O)c(-c3nc(C(=O)NC(SCCN=C(N)N)C(N)=O)cs3)nc2-c2csc(n2)[C@@H]2COC(=O)c3c4c5c(cccc5n3O)COC(=O)[C@@H](O[C@H]3C[C@](C)(O)[C@H](N(C)C)[C@H](C)O3)[C@@H](OC4)[C@H](NC(=O)c3csc1n3)c1nc(cs1)C(=O)N2 (some centres not stated) |  | 4 (≈ 2.59 µM) | > 128 | 2 (≈ 1.3 µM)
CO/C(C)=C1/NC(=O)C([C@@H](C)O)NC(=O)c2csc(n2)-c2cc(O)c(-c3nc(C(=O)NC(SCCc4cnccn4)C(N)=O)cs3)nc2-c2csc(n2)[C@@H]2COC(=O)c3c4c5c(cccc5n3O)COC(=O)[C@@H](O[C@H]3C[C@](C)(O)[C@H](N(C)C)[C@H](C)O3)[C@@H](OC4)[C@H](NC(=O)c3csc1n3)c1nc(cs1)C(=O)N2 (some centres not stated) | 4.4 | 0.125 (≈ 0.0799 µM) | 0.25 (≈ 0.16 µM) | 0.015 (≈ 0.00959 µM)
CO/C(C)=C1/NC(=O)C([C@@H](C)O)NC(=O)c2csc(n2)-c2cc(O)c(-c3nc(C(=O)NC(SCC(=O)O)C(N)=O)cs3)nc2-c2csc(n2)[C@@H]2COC(=O)c3c4c5c(cccc5n3O)COC(=O)[C@@H](O[C@H]3C[C@](C)(O)[C@H](N(C)C)[C@H](C)O3)[C@@H](OC4)[C@H](NC(=O)c3csc1n3)c1nc(cs1)C(=O)N2 (some centres not stated) | > 10 | 2 (≈ 1.32 µM) | 1 (≈ 0.66 µM) | 0.125 (≈ 0.0825 µM)
CO/C(C)=C1/NC(=O)C([C@@H](C)O)NC(=O)c2csc(n2)-c2cc(O)c(-c3nc(C(=O)NC(SCCP(=O)([O-])O)C(N)=O)cs3)nc2-c2csc(n2)[C@@H]2COC(=O)c3c4c5c(cccc5n3O)COC(=O)[C@@H](O[C@H]3C[C@](C)(O)[C@H](N(C)C)[C@H](C)O3)[C@@H](OC4)[C@H](NC(=O)c3csc1n3)c1nc(cs1)C(=O)N2.[Na+] (some centres not stated) |  | 2 | 32 | 0.25
CO/C(C)=C1/NC(=O)C([C@@H](C)O)NC(=O)c2csc(n2)-c2cc(O)c(-c3nc(C(=O)NC(C(N)=O)S(=O)(=O)C4C5CCN4CC5)cs3)nc2-c2csc(n2)[C@@H]2COC(=O)c3c4c5c(cccc5n3O)COC(=O)[C@@H](O[C@H]3C[C@](C)(O)[C@H](N(C)C)[C@H](C)O3)[C@@H](OC4)[C@H](NC(=O)c3csc1n3)c1nc(cs1)C(=O)N2 (some centres not stated) |  | 0.5 (≈ 0.316 µM) | 1 (≈ 0.631 µM) | 0.06 (≈ 0.0379 µM)
C=C(NC(=O)c1csc(-c2nc3c(cc2O)-c2nc(cs2)C(=O)N[C@@H]([C@@H](C)O)C(=O)N/C(=C(\C)OC)c2nc(cs2)C(=O)N[C@@H]2c4nc(cs4)C(=O)N[C@@H](COC(=O)c4c5c6c(cccc6n4O)COC(=O)[C@@H](O[C@H]4C[C@](C)(O)[C@H](N(C)C)[C@H](C)O4)[C@H]2OC5)c2nc-3cs2)n1)C(N)=O [MJ347-81F4 A] | 0.8 | 0.007 (≈ 0.00487 µM) | 0.03 (≈ 0.0209 µM) | 0.002 (≈ 0.00139 µM)
